Assay results published in ChEMBL document CHEMBL1122352, “Synthesis and antitumor activity of 2-beta-D-ribofuranosylselenazole-4-carboxamide and related derivatives” (1983).

Experiments:
Assay type in all cases: functional
Mus musculus [1] = test: Evaluated for median life span in mice inoculated with lewis lung carcinoma at a dose of 100 mg/kg (Experiment-1)
L1210 [2] = test: Evaluated for cytotoxicity against L1210 cells; conditions: Mus musculus, read-out: ID50 (the source's name)
Mus musculus [3] = test: Evaluated for median life span in mice inoculated with lewis lung carcinoma at a dose of 3 mg/kg (Experiment-2)
Mus musculus [4] = test: Evaluated for increase in life span in mice inoculated with lewis lung carcinoma at a dose of 6 mg/kg (Experiment-2)
Mus musculus [5] = test: Evaluated for median life span in mice inoculated with lewis lung carcinoma at a dose of 12 mg/kg (Experiment-2)
Mus musculus [6] = test: Evaluated for median life span in mice inoculated with lewis lung carcinoma at a dose of 12 mg/kg (Experiment-1)
Mus musculus [7] = test: Evaluated for increase in life span in mice inoculated with lewis lung carcinoma at a dose of 24 mg/kg (Experiment-2)
Mus musculus [8] = test: Evaluated for increase in life span in mice inoculated with lewis lung carcinoma at a dose of 12 mg/kg (Experiment-2)
Mus musculus [9] = test: Evaluated for increase in life span in mice inoculated with lewis lung carcinoma at a dose of 25 mg/kg (Experiment-1)
Mus musculus [10] = test: Evaluated for increase in life span in mice inoculated with lewis lung carcinoma at a dose of 50 mg/kg (Experiment-1)
Mus musculus [11] = test: Evaluated for increase in life span in mice inoculated with lewis lung carcinoma at a dose of 1.5 mg/kg (Experiment-2)
Mus musculus [12] = test: Evaluated for increase in life span in mice inoculated with lewis lung carcinoma at a dose of 100 mg/kg (Experiment-1)
Mus musculus [13] = test: Evaluated for median life span in mice inoculated with lewis lung carcinoma at a dose of 200 mg/kg (Experiment-1)
Mus musculus [14] = test: Evaluated for increase in life span in mice inoculated with lewis lung carcinoma at a dose of 12 mg/kg (Experiment-1)
Mus musculus [15] = test: Evaluated for median life span in mice inoculated with lewis lung carcinoma at a dose of 25 mg/kg (Experiment-1)
Mus musculus [16] = test: Evaluated for median life span in mice inoculated with lewis lung carcinoma at a dose of 1.5 mg/kg (Experiment-2)
Mus musculus [17] = test: Evaluated for median life span in mice inoculated with lewis lung carcinoma at a dose of 6 mg/kg (Experiment-2)
Mus musculus [18] = test: Evaluated for median life span in mice inoculated with lewis lung carcinoma at a dose of 50 mg/kg (Experiment-1)
Mus musculus [19] = test: Evaluated for median life span in mice inoculated with lewis lung carcinoma at a dose of 24 mg/kg (Experiment-2)
Mus musculus [20] = test: Evaluated for increase in life span in mice inoculated with lewis lung carcinoma at a dose of 3 mg/kg (Experiment-2)
P388 = test: Evaluated for cytotoxicity against P-388 cells; conditions: Mus musculus, read-out: ID50 (the source's name)
Mus musculus [21] = test: Evaluated for median life span in mice inoculated with lewis lung carcinoma at a dose of 20 mg/kg
L1210 [22] = test: Evaluated for cytotoxicity to L1210 cells; conditions: Mus musculus, read-out: ID50 (the source's name)
Mus musculus [23] = test: Evaluated for median life span in mice inoculated with lewis lung carcinoma at a dose of 75 mg/kg
Mus musculus [24] = test: Evaluated for median life span in mice inoculated with lewis lung carcinoma at a dose of 13 mg/kg
Mus musculus [25] = test: Evaluated for median life span in mice inoculated with lewis lung carcinoma at a dose of 9 mg/kg
Mus musculus [26] = test: Evaluated for median life span in mice inoculated with lewis lung carcinoma at a dose of 33 mg/kg
Mus musculus [27] = test: Evaluated for increase in life span in mice inoculated with lewis lung carcinoma at a dose of 13 mg/kg
Mus musculus [28] = test: Evaluated for median life span in mice inoculated with lewis lung carcinoma at a dose of 50 mg/kg

NC(=O)c1c[se]c([C@@H]2O[C@H](CO)[C@@H](O)[C@H]2O)n1
MLS (Mus musculus [1]): 20.3 days
IC50 (L1210 [2]): 400 nM
MLS (Mus musculus [3]): 31 days
ILS at 6 mg/kg (Mus musculus [4]): 197%
MLS (Mus musculus [5]): 60 days
MLS (Mus musculus [6]): 60 days
ILS at 24 mg/kg (Mus musculus [7]): 197%
ILS at 12 mg/kg (Mus musculus [8]): 197%
ILS at 25 mg/kg (Mus musculus [9]): 255%
ILS at 50 mg/kg (Mus musculus [10]): 255%
ILS at 1.5 mg/kg (Mus musculus [11]): 10%
ILS at 100 mg/kg (Mus musculus [12]): 20%
MLS (Mus musculus [13]): 10.7 days
ILS at 12 mg/kg (Mus musculus [14]): 255%
MLS (Mus musculus [15]): 60 days
MLS (Mus musculus [16]): 22 days
MLS (Mus musculus [17]): 60 days
MLS (Mus musculus [18]): 60 days
MLS (Mus musculus [19]): 60 days
ILS at 3 mg/kg (Mus musculus [20]): 53%
IC50 (P388): 300 nM

NC(=O)c1c[se]c([C@@H]2O[C@H](COP(=O)(O)O)[C@@H](O)[C@H]2O)n1
MLS (Mus musculus [21]): 12 days
IC50 (L1210 [22]): 390 nM
MLS (Mus musculus [23]): 15.5 days
MLS (Mus musculus [24]): 60 days
MLS (Mus musculus [25]): 12.5 days
MLS (Mus musculus [26]): 12.5 days
ILS at 13 mg/kg (Mus musculus [27]): 215%
MLS (Mus musculus [28]): 12.5 days

NC(=O)c1csc([C@@H]2O[C@H](CO)[C@@H](O)[C@H]2O)n1 [TIAZOFURIN]
IC50 (L1210 [2]): 1950 nM
